Source: patent publication US20040138301A1, “Chemical uncouplers for the treatment of obesity” (priority 2002, published 2004)
Like-named read-outs stand apart in the source and are kept apart here.

What was measured:
HEP-G2 cells = test: cells; conditions: for EC50 / Emax / EC (Emax): Homo sapiens; for EC50: HepG2, 3 h; for HEP-G2 Tox: human, 3 h
How it was run: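 HEP-G2 cells were treated with compound for 3 h at 37 °C in MEM/0.5% BSA containing 10 μCi/ml D-(3-^3H(N))-glucose, then lysed with TCA; ^3H-water released via the respiratory chain was recovered by evaporation at 50 °C and counted. Values are corrected for non-specific and basal counts, expressed as % of maximal FCCP or DNP stimulation, and EC50 is from a variable-slope sigmoidal fit.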

FSK-4 cells = test: Assay (IV): Glucose utilisation in FSK-4 cells; format: cell-based; conditions: FSK-4 cells; for EC50: glucose utilisation, 24 hours incubation, read-out: FSK4 EC50; for Emax: maximal efficacy relative to FCCP, read-out: FSK4 Emax (% of FCCP)
Experimental: Assay (IV): Glucose Utilisation in FSK-4 Cells
The assay measures indirectly the activity of the respiratory chain in FSK-4 cells by using D-(6-^3H(N))-glucose. The ^3H-proton will first be released in the TCA cyclus and transported to the respiratory chain where it will be incorporated into water. The water is thereafter separated from the D-(6-^3H(N))-glucose by evaporation. Finally, the radioactivity in the water is determined using a Topcounter.
FSK-4 cells obtained from ATCC (Maryland, USA), are cultured in growth medium (McCoy's medium with the following addition 100 units/ml penicillin and streptomycin and 10% FCS (fetal calf serum)) at 37° C. and 5% CO2. All media are obtained by Gibco (Life Technologies, Maryland, USA) where not otherwise mentioned.
At day zero the cells are harvested using trypsin-EDTA and washed in assay medium (MEM medium with the following addition 1× non-essential amino acids (M7145, 2 mM glutamin, 100 units/ml pencillin and streptomycin, 0.0075% sodium bicarbonate, 1 mM sodium pyrovate and 2% horse serum) using centrifugation. The cells are plated into single StripPlates wells (Corning B.V.Life Sciences, The Netherlands) that are placed into 24-well plates (Corning B.V.Life Sciences, The Netherlands) with a concentration of 1,5×10^4 cells/100 μl assay medium/well. The cells are then incubated at 37° C. and 5% CO2 overnight.
The next day the compounds to be tested are diluted to different concentrations in DMSO (Sigma, Missouri, USA) to 100 times final concentration. They are then diluted to a final concentration in assay medium containing 10 μCi/ml D-(6-^3H(N))-glucose (PerkinElmer Life Sciences Inc., Boston, USA). The medium is removed from the cells and 200 μl of the compound dilutions are added in duplicates. The cells are then incubated for another 24 hours at 37° C. and 5% CO2. Finally the cells are lysed by adding 50 μl 10% TCA (tri-chloroacetatic acid). 300 μl of sterile water is then added to the 24-wells that surrounds the StripPlate wells. The plate is sealed with Top-seal-tape (Packard, PerkinElmer Life Sciences Inc., Boston, USA) and the plate is incubated in a heating cupboard at 50° C. to equilibrium the radioactive water formed in the respiratory chain into the water in the 24-well plate by evaporate. The plates incubate for 8 hours where the heating cupboard is turned off. The top seal is removed when the samples have reached room temperature. One ml scintillation liquid (Packard Microscient, PerkinElmer Life Sciences Inc., Boston, USA) is added to all the samples and the radioactivity is determined using a Topcounter (Packard, PerkinElmer Life Sciences Inc., Boston, USA). Non-specific activity is determined by evaporating 200 μl of the dilution medium containing the D-(6-^3H(N))-glucose into 300 μl sterile water, and total radioactivity is determined by counting 5 μl assay medium with 10 μCi/ml D-(6-^3H(N))-glucose.
All calculations are done using GraphPad Prism 3.0 (GraphPad software, Inc.) From concentration-response curves the half maximal concentration (EC50) and maximal efficacy (Emax) are calculated using equation 1.
Y=Bottom+(Top−Bottom)/(1+10^((LogEc50-X)*slope))
X is the logarithm of the molar concentration of the test compound.
Y is the degree of stimulation caused by the compound measured as percentage of the basal stimulation.
The calculated EC50 value is then used to determine the concentrations used in a study where the Hill slope is calculated.
From the double logarithmic plot of the increase in glucose utilisation and the compound concentration the Hill slope is calculated accordingly to equation 2.
It is presumed, that the maximal increase in the glucose utilisation (as measured in the FSK-4 glucose utilisation assay) is limited by the capacity of the metabolism.

[1] = read-out: HEP-G2 EC50, HEP-G2 cells, glucose utilisation, 3 hours incubation
[2] = HepG2, read-out: HEP-G2 Emax (% of FCCP), HEP-G2 cells, maximal stimulation relative to FCCP
[3] = HepG2, read-out: HEP-G2 Emax (μM), HEP-G2 cells, concentration at which Emax is achieved (CEmax)
[4] = HepG2, read-out: HEP-G2 Emax (% of FCCP)
[5] = HepG2, read-out: HEP-G2 Emax (μM)

| Structure (SMILES) | EC50 (HEP-G2 cells; [1]) [µM] | EC50 (FSK-4 cells) [µM] | Emax (HEP-G2 cells; [2]) [%] | EC (Emax) (HEP-G2 cells; [3]) [µM] | HEP-G2 Tox (HEP-G2 cells) | Emax (FSK-4 cells) [%] | EC50 (HEP-G2 cells; read-out: HEP-G2 EC50) [µM] | Emax (HEP-G2 cells; [4]) [%] | EC (Emax) (HEP-G2 cells; [5]) [µM] |
| --- | --- | --- | --- | --- | --- | --- | --- | --- | --- |
| Cc1c(Cl)cc(C(C)(C)C)c(O)c1C(=O)Nc1ccc([N+](=O)[O-])c(C(F)(F)F)c1 [Example 49, 3-Tert-Butyl-5-Chloro-2-Hydroxy-6-Methyl-N-(4-Nitro-3-Trifluoromethyl-Phenyl)-Benzamide] | 0.95 | 0.3 | 105 | 3 | – | 95 | – | – | – |
| Cc1c(Br)cc(C(C)(C)C)c(O)c1C(=O)Nc1c(Cl)cc([N+](=O)[O-])cc1Cl [Example 55, 3-Bromo-5-Tert-Butyl-N-(2,6-Dichloro-4-Nitro-Phenyl)-6-Hydroxy-2-Methyl-Benzamide] | 0.36 | 0.3 | 99 | 1 | – | 100 | – | – | – |
| Cc1c(Br)cc(C(C)(C)C)c(O)c1C(=O)Nc1cc(C(F)(F)F)cc(C(F)(F)F)c1Br [Example 60, 3-Bromo-N-(2-Bromo-3,5-Bis-Trifluoromethyl-Phenyl)-5-Tert-Butyl-6-Hydroxy-2-Methylbenzamide] | 0.07 | 0.3 | 90 | 0.3 | – | 105 | – | – | – |
| CCOC(=O)/C(=C/c1cc(C(C)(C)C)c(O)c(C(C)(C)C)c1)C(C)=O [Example 69, 2-Acetyl-3-(3,5-Di-Tert-Butyl-4-Hydroxy-Phenyl)-Acrylic Acid Ethyl Ester] | 100 | 9 | 58 | 300 | Tox 1 mM | 40 | – | – | – |
| CC(C)(C)c1cc([N+](=O)[O-])cc([N+](=O)[O-])c1O [Example 73, 2-Tert-Butyl-4,6-Dinitro-Phenol] | – | 7 | – | – | – | 100 | 7.3 | 70 | 300 |
| CC(C)(C)c1cc(/C=C(\C#N)c2ccccn2)cc(C(C)(C)C)c1O [Example 74, 3-(3,5-Di-Tert-Butyl-4-Hydroxy-Phenyl)-2-Pyridin-2-Yl-Acrylonitrile] | 16 | 15 | 80 | 100 | – | 120 | – | – | – |
| CCOP(=O)(OCC)/C(C#N)=C\c1cc(C(C)(C)C)c(O)c(C(C)(C)C)c1 [Example 76, 3-(3,5-Di-Tertbutyl-4-Hydroxybenzylidene)-2-(Diethylphosphonate)-Propenenitrile] | – | 3.2 | – | – | – | 150 | 11 | 90 | 30 |
| CC(C)(C)c1cc(/C=C(\C#N)c2ccc(OC(F)(F)F)cc2)cc(C(C)(C)C)c1O [Example 80, 3-(3,5-Di-Tert-Butyl-4-Hydroxy-Phenyl)-2-(4-Trifluoromethoxy-Phenyl)-Acrylonitrile] | 8 | 18 | 80 | 100 | Tox 0.3 mM | 100 | – | – | – |
| CC(C)(C)c1cc(/C=C(\C#N)c2ccc(C(F)(F)F)cc2)cc(C(C)(C)C)c1O [Example 81, 3-(3,5-Di-Tert-Butyl-4-Hydroxy-Phenyl)-2-(4-Trifluoromethyl-Phenyl)-Acrylonitrile] | – | 7 | – | – | – | 140 | 7 | 130 | 100 |

Continued, in another order:

| EC50 (HEP-G2 cells; [1]) [µM] | EC50 (FSK-4 cells) [µM] | Structure (SMILES) | Emax (HEP-G2 cells; [2]) [%] | EC (Emax) (HEP-G2 cells; [3]) [µM] | HEP-G2 Tox (HEP-G2 cells) | Emax (FSK-4 cells) [%] | EC50 (HEP-G2 cells; read-out: HEP-G2 EC50) [µM] | Emax (HEP-G2 cells; [4]) [%] | EC (Emax) (HEP-G2 cells; [5]) [µM] |
| --- | --- | --- | --- | --- | --- | --- | --- | --- | --- |
| 0.7 | 1 | Cc1c(Cl)cc(C(C)(C)C)c(O)c1C(=O)Nc1cc(C(F)(F)F)cc(C(F)(F)F)c1 [Example 47, N-(3,5-Bis-Trifluoromethyl-Phenyl)-3-Tert-Butyl-5-Chloro-2-Hydroxy-6-Methyl-Benzamide] | 75 | 10 | Tox 0.1 mM | 90 | – | – | – |
| 3.5 | 2.8 | Cc1c(Cl)cc(C(C)(C)C)c(O)c1C(=O)Nc1cc(C(F)(F)F)ccc1F [Example 48, 3-Tert-Butyl-5-Chloro-N-(2-Fluoro-5-Trifluoromethyl-Phenyl)-2-Hydroxy-6-Methyl-Benzamide] | 95 | 10 | 0.1 mM | 85 | – | – | – |
| 0.4 | 0.3 | Cc1c(Br)cc(C(C)(C)C)c(O)c1C(=O)Nc1ccc(C#N)cc1Cl [Example 51, 3-Bromo-5-Tert-Butyl-N-(2-Chloro-4-Cyano-Phenyl)-6-Hydroxy-2-Methyl-Benzamide] | 100 | 3 | – | 105 | – | – | – |
| 2.4 | 2.5 | Cc1c(Br)cc(C(C)(C)C)c(O)c1C(=O)Nc1cc(C(F)(F)F)ccc1Cl [Example 52, 3-Bromo-5-Tert-Butyl-N-(2-Chloro-5-Trifluoromethyl-Phenyl)-6-Hydroxy-2-Methyl-Benzamide] | 95 | 10 | – | 75 | – | – | – |
| 4.15 | 15 | Cc1c(Br)cc(C(C)(C)C)c(O)c1C(=O)Nc1ccc(Cl)cc1Cl [Example 53, 3-Bromo-5-Tert-Butyl-N-(2,4-Dichloro-Phenyl)-6-Hydroxy-2-Methyl-Benzamide] | 90 | 10 | – | 95 | – | – | – |
| 0.52 | 0.3 | Cc1c(Br)cc(C(C)(C)C)c(O)c1C(=O)Nc1c(Cl)cc(Cl)cc1[N+](=O)[O-] [Example 54, 3-Bromo-5-Tert-Butyl-N-(2,4-Dichloro-6-Nitro-Phenyl)-6-Hydroxy-2-Methyl-Benzamide] | 90 | 3 | – | 80 | – | – | – |
| 0.11 | 0.03 | Cc1ccc(C(C)(C)C)c(O)c1C(=O)Nc1ccc([N+](=O)[O-])cc1C(F)(F)F [Example 59, 3-Tert-Butyl-2-Hydroxy-6-Methyl-N-(4-Nitro-2-Trifluoromethyl-Phenyl)-Benzamide] | 110 | 10 | – | 100 | – | – | – |
| 0.87 | 1.1 | Cc1c(Br)cc(C(C)(C)C)c(O)c1C(=O)Nc1cc(C(F)(F)F)ccc1C(F)(F)F [Example 61, N-(2,5-Bis-Trifluoromethyl-Phenyl)-3-Bromo-5-Tert-Butyl-6-Hydroxy-2-Methyl-Benzamide] | 105 | 10 | – | 105 | – | – | – |
| 2.3 | 1.2 | Cc1c(Br)cc(C(C)(C)C)c(O)c1C(=O)Nc1c(Cl)cc(Cl)cc1C(F)(F)F [Example 62, 3-Bromo-5-Tert-Butyl-N-(2,4-Dichloro-6-Trifluoromethyl-Phenyl)-6-Hydroxy-2-Methylbenzamide] | 115 | 30 | – | 85 | – | – | – |
| 14 | 19 | Cc1c(Br)cc(C(C)(C)C)c(O)c1C(=O)Nc1ccc(C(C)C)cc1C(F)(F)F [Example 63, 3-Bromo-5-Tert-Butyl-6-Hydroxy-N-(4-Isopropyl-2-Trifluoromethyl-Phenyl)-2-Methyl-Benzamide] | 90 | 100 | – | 55 | – | – | – |
